According to PubChem BioAssay (NCI):
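Cells were grown in 96-well plates and exposed to each compound for 48 hours at five concentrations; endpoints were interpolated linearly between bracketing concentrations, or set to the highest concentration if not reached. TGI: total growth inhibition.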

Assays:
Experiment in all cases: DTP human tumour cell line panel, 48 h
HCT-15 colon = test system: HCT-15 colon
SNB-75 CNS = test system: SNB-75 CNS
HOP-92 NSCLC = test system: HOP-92 NSCLC
SK-MEL-5 melanoma = test system: SK-MEL-5 melanoma
OVCAR-5 ovarian = test system: OVCAR-5 ovarian
HT29 colon = test system: HT29 colon
MOLT-4 leukemia = test system: MOLT-4 leukemia
T-47D breast = test system: T-47D breast
HCT-116 colon = test system: HCT-116 colon
NCI-H226 lung = test system: NCI-H226 lung
MDA-MB-231 breast = test system: MDA-MB-231 breast
MALME-3M melanoma = test system: MALME-3M melanoma
SK-MEL-2 melanoma = test system: SK-MEL-2 melanoma
NCI-H23 lung = test system: NCI-H23 lung
NCI-H460 lung = test system: NCI-H460 lung
K-562 leukemia = test system: K-562 leukemia
NCI-H522 lung = test system: NCI-H522 lung
OVCAR-3 ovarian = test system: OVCAR-3 ovarian
PC-3 prostate = test system: PC-3 prostate
HOP-62 NSCLC = test system: HOP-62 NSCLC
UO-31 renal = test system: UO-31 renal
IGROV1 ovarian = test system: IGROV1 ovarian
RPMI-8226 leukemia = test system: RPMI-8226 leukemia
M14 melanoma = test system: M14 melanoma
UACC-257 melanoma = test system: UACC-257 melanoma
SF-268 CNS = test system: SF-268 CNS
CAKI-1 renal = test system: CAKI-1 renal
NCI/ADR-RES ovarian = test system: NCI/ADR-RES ovarian
MCF7 breast = test system: MCF7 breast
A549 NSCLC = test system: A549 NSCLC
UACC-62 melanoma = test system: UACC-62 melanoma
MDA-MB-435 = test system: MDA-MB-435
MDA-N = test system: MDA-N
SF-539 CNS = test system: SF-539 CNS
SW-620 colon = test system: SW-620 colon
HL-60(TB) leukemia = test system: HL-60(TB) leukemia
CCRF-CEM leukemia = test system: CCRF-CEM leukemia
HS 578T breast = test system: HS 578T breast
SR leukemia = test system: SR leukemia
SN12C renal = test system: SN12C renal
LOX IMVI melanoma = test system: LOX IMVI melanoma
TK-10 renal = test system: TK-10 renal
SF-295 CNS = test system: SF-295 CNS
A498 renal = test system: A498 renal
DU-145 prostate = test system: DU-145 prostate
ACHN renal = test system: ACHN renal
U251 CNS = test system: U251 CNS
SK-MEL-28 melanoma = test system: SK-MEL-28 melanoma
OVCAR-8 ovarian = test system: OVCAR-8 ovarian
COLO 205 colon = test system: COLO 205 colon
786-0 renal = test system: 786-0 renal
SK-OV-3 ovarian = test system: SK-OV-3 ovarian
OVCAR-4 ovarian = test system: OVCAR-4 ovarian
RXF 393 renal = test system: RXF 393 renal
BT-549 breast = test system: BT-549 breast
KM12 colon = test system: KM12 colon

With `Cc1nc2cc([N+](=O)[O-])ccc2c(NCCCN(C)C)c1C` the TGI (HCT-15 colon) was 31.3 µM, the TGI (SNB-75 CNS) was over 100 µM and the TGI (HOP-92 NSCLC) was 8.09 µM. It also gave a TGI (SK-MEL-5 melanoma) of 21.7 µM, a TGI (OVCAR-5 ovarian) of 38.3 µM and a TGI (HT29 colon) of 10.9 µM. It also gave a TGI (MOLT-4 leukemia) of 29.4 µM, a TGI (T-47D breast) of 29 µM and a TGI (HCT-116 colon) of 22.4 µM. For the same molecule, the TGI (NCI-H226 lung) was 25.9 µM, the TGI (MDA-MB-231 breast) was 14.2 µM and the TGI (MALME-3M melanoma) was 18.9 µM. For the same molecule, the TGI (SK-MEL-2 melanoma) was 22.7 µM, the TGI (NCI-H23 lung) was 15.4 µM and the TGI (NCI-H460 lung) was 13.5 µM. The TGI (K-562 leukemia) was over 100 µM, the TGI (NCI-H522 lung) was 10.7 µM and the TGI (OVCAR-3 ovarian) was 33.7 µM. For the same molecule, the TGI (PC-3 prostate) was 24.3 µM, the TGI (HOP-62 NSCLC) was 28.2 µM and the TGI (UO-31 renal) was 32.1 µM. For the same molecule, the TGI (IGROV1 ovarian) was 11.9 µM, the TGI (RPMI-8226 leukemia) was over 100 µM and the TGI (M14 melanoma) was 26.7 µM. It also gave a TGI (UACC-257 melanoma) of 18.6 µM, a TGI (SF-268 CNS) of over 100 µM and a TGI (CAKI-1 renal) of 55.6 µM. It also gave a TGI (NCI/ADR-RES ovarian) of 39.9 µM, a TGI (MCF7 breast) of 11 µM and a TGI (A549 NSCLC) of 32.2 µM. The TGI (UACC-62 melanoma) was 33.9 µM, the TGI (MDA-MB-435) was 31.1 µM and the TGI (MDA-N) was 28.2 µM. It also gave a TGI (SF-539 CNS) of 30 µM, a TGI (SW-620 colon) of 24.7 µM and a TGI (HL-60(TB) leukemia) of over 100 µM. It also gave a TGI (CCRF-CEM leukemia) of over 100 µM, a TGI (HS 578T breast) of 75.7 µM and a TGI (SR leukemia) of over 100 µM. It also gave a TGI (SN12C renal) of 34.5 µM, a TGI (LOX IMVI melanoma) of 36 µM and a TGI (TK-10 renal) of 67 µM. The TGI (SF-295 CNS) was 48.4 µM, the TGI (A498 renal) was 30.5 µM and the TGI (DU-145 prostate) was 68.9 µM. For the same molecule, the TGI (ACHN renal) was 76.7 µM, the TGI (U251 CNS) was 63.5 µM and the TGI (SK-MEL-28 melanoma) was over 100 µM. It also gave a TGI (OVCAR-8 ovarian) of 35.1 µM, a TGI (COLO 205 colon) of 8.55 µM and a TGI (786-0 renal) of 30.9 µM. For the same molecule, the TGI (SK-OV-3 ovarian) was over 100 µM, the TGI (OVCAR-4 ovarian) was 11.1 µM and the TGI (RXF 393 renal) was 27.6 µM. It also gave a TGI (BT-549 breast) of 26.1 µM and a TGI (KM12 colon) of 26.6 µM.
